Measurements as given in US20230265151A1, “GIP/GLP1 CO-AGONIST COMPOUNDS” (priority 2020, published 2023).
Read-outs that look alike come from different tables or passages of the source.

Key:
[1] = target: T1, hGCGR (Homo sapiens, UniProt P47871); experiment: Functional cAMP formation (HTRF) in HEK-293 clonal cells expressing hGCGR, 0.1% bovine casein, without or with 1.0% human serum albumin; assay type: cell-based; settings: cAMP, incubated at 37° C., 0.1% bovine casein (no human serum albumin), geometric mean
T1 construct: expressed in transfected cells
T1 sequence (P47871 26-477): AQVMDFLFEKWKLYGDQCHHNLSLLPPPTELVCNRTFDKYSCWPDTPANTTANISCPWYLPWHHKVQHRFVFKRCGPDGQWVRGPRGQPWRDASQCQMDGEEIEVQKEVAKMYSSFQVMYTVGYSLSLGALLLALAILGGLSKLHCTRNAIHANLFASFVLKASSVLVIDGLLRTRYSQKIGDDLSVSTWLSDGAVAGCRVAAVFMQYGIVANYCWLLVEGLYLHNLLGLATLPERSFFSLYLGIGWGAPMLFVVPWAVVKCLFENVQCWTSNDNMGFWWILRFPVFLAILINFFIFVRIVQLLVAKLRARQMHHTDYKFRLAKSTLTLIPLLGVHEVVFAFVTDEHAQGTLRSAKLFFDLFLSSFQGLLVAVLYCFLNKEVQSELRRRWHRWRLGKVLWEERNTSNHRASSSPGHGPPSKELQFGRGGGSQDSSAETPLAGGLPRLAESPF
Description: (§1) After a 30-min incubation at 37° C., the resulting increase in intracellular cAMP is quantitatively determined using a CisBio cAMP Dynamic 2 HTRF Assay Kit (62AM4PEJ). Briefly, cAMP levels within the cell are detected by adding the cAMP-d2 conjugate in cell lysis buffer (10 µL) followed by the antibody anti-cAMP-Eu^3+-Cryptate, also in cell lysis buffer (10 µL). The resulting competitive assay is incubated for at least 60 min at room temperature, and then is detected using a PerkinElmer Envision® instrument with excitation at 320 nm and emission at 665 nm and 620 nm. Envision units (emission at 665 nm/620 nm* 10,000) are inversely proportional to the amount of cAMP present and are converted to nM cAMP per well us-ing a cAMP standard curve. […] A relative EC50 value and percent top (Emax) are derived by non-linear regression analysis using the percent maximal response vs. the concentration of peptide added, fitted to a four-parameter logistic equation.

[2] = target: T2, hGIPR (Homo sapiens, UniProt P48546); experiment: Functional cAMP formation (HTRF) in HEK-293 clonal cells expressing hGIPR, 0.1% bovine casein, without or with 1.0% human serum albumin; assay type: cell-based; settings: for Emax: 37° C., 0.1% bovine casein, arithmetic mean; for EC50: cAMP, incubated at 37° C., 0.1% bovine casein (no human serum albumin), geometric mean
T2 construct: expressed in transfected cells
T2 sequence (P48546 22-466): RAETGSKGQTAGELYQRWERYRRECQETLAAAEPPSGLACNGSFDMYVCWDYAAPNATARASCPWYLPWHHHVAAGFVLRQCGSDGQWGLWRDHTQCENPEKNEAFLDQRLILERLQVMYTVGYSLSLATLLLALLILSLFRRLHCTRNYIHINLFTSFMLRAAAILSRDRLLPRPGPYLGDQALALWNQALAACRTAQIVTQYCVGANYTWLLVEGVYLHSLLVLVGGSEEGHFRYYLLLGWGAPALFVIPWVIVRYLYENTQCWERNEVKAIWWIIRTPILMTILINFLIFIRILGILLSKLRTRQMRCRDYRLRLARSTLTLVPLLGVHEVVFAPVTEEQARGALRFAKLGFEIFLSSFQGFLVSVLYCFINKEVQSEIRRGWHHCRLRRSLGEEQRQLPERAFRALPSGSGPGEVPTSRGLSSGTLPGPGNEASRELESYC
Description: as §1

[3] = read-out: hGCGR EC50, nM (SEM, n)
[4] = HEK293, percent of maximal response to GIP(1-42)NH2, read-out: hGIPR Emax, % ± SEM
[5] = read-out: hGIPR EC50, nM (SEM, n)

Structure (SMILES) | EC50 [1, 3] [nM] | Emax [2, 4] [%] | EC50 ([1]; hGCGR EC50, nM (SEM, n)) [nM] | Emax ([2]; HEK293, read-out: hGIPR Emax, % ± SEM, percent of maximal response to GIP(1-42)NH2) [%] | EC50 ([2]; hGIPR EC50, nM (SEM, n)) [nM] | EC50 [2, 5] [nM]
CC[C@H](C)[C@H](NC(=O)[C@H](CC(C)C)NC(=O)[C@](C)(Cc1ccc(O)cc1)NC(=O)[C@@H](CCC(=O)O)NC(=O)[C@@H](NC(=O)[C@H](Cc1ccccc1)NC(=O)[C@H](CCC(=O)O)NC(=O)C(C)(C)NC(=O)[C@H](CCC(N)=O)NC(=O)[C@H](C)NC(=O)[C@H](CCCCNC(=O)COCCOCCNC(=O)COCCOCCNC(=O)CC[C@H](NC(=O)CCCCCCCCCCCCC(=O)O)C(=O)O)NC(=O)CNC(=O)[C@H](CC(=O)O)NC(=O)[C@H](CC(C)C)NC(=O)[C@](C)(CC(C)C)NC(=O)[C@@H](NC(=O)[C@H](CO)NC(=O)[C@H](Cc1ccncc1)NC(=O)[C@H](CC(=O)O)NC(=O)[C@H](CO)NC(=O)[C@@H](NC(=O)[C@](C)(Cc1ccccc1F)NC(=O)[C@@H](NC(=O)CNC(=O)[C@H](CCC(=O)O)NC(=O)C(C)(C)NC(=O)[C@@H](N)Cc1ccc(O)cc1)[C@@H](C)O)[C@@H](C)O)[C@@H](C)CC)[C@@H](C)CC)C(=O)N[C@@H](CCC(=O)O)C(=O)NCC(=O)NCC(=O)N[C@@H](CCCCNC(=O)COCCOCCNC(=O)COCCOCCNC(=O)CC[C@H](NC(=O)CCCCCCCCCCCCC(=O)O)C(=O)O)C(=O)N[C@@H](CO)C(=O)N[C@@H](CO)C(=O)NCC(=O)N[C@@H](C)C(=O)N1CCC[C@H]1C(=O)N1CCC[C@H]1C(=O)N1CCC[C@H]1C(=O)N[C@@H](CO)C(N)=O [Example 101] | > 9950 | 92.1 |  |  |  | 
CC[C@H](C)[C@H](NC(=O)[C@H](CCCN)NC(=O)[C@H](CC(=O)O)NC(=O)[C@H](CC(C)C)NC(=O)[C@](C)(CC(C)C)NC(=O)[C@@H](NC(=O)[C@H](CO)NC(=O)[C@H](CCCCNC(=O)COCCOCCNC(=O)COCCOCCNC(=O)CC[C@H](NC(=O)CCCCCCCCCCCCC(=O)O)C(=O)O)NC(=O)[C@H](CC(=O)O)NC(=O)[C@H](CO)NC(=O)[C@@H](NC(=O)[C@](C)(Cc1ccccc1F)NC(=O)[C@@H](NC(=O)CNC(=O)[C@H](CCC(=O)O)NC(=O)C(C)(C)NC(=O)[C@@H](N)Cc1ccc(O)cc1)[C@@H](C)O)[C@@H](C)O)[C@@H](C)CC)C(=O)N[C@@H](C)C(=O)N[C@@H](CCC(N)=O)C(=O)NC(C)(C)C(=O)N[C@@H](CCC(=O)O)C(=O)N[C@@H](Cc1ccccc1)C(=O)N[C@H](C(=O)N[C@@H](CCCCNC(=O)COCCOCCNC(=O)COCCOCCNC(=O)CC[C@H](NC(=O)CCCCCCCCCCCCC(=O)O)C(=O)O)C(=O)N[C@@](C)(Cc1ccc(O)cc1)C(=O)N[C@@H](CC(C)C)C(=O)N[C@H](C(=O)N[C@@H](CCC(=O)O)C(=O)NCC(=O)NCC(=O)N1CCC[C@H]1C(=O)N[C@@H](CO)C(=O)N[C@@H](CO)C(=O)NCC(=O)N[C@@H](C)C(=O)N1CCC[C@H]1C(=O)N1CCC[C@H]1C(=O)N1CCC[C@H]1C(=O)N[C@@H](CO)C(N)=O)[C@@H](C)CC)[C@@H](C)CC [Example 106] |  |  | > 9950 | 98.7 ± 3.32 | 0.0385 | 
CC[C@H](C)[C@H](NC(=O)[C@H](CCCN)NC(=O)[C@H](CC(=O)O)NC(=O)[C@H](CC(C)C)NC(=O)[C@](C)(CC(C)C)NC(=O)[C@@H](NC(=O)[C@H](CO)NC(=O)[C@H](CCCCNC(=O)COCCOCCNC(=O)COCCOCCNC(=O)CC[C@H](NC(=O)CCCCCCCCCCCCC(=O)O)C(=O)O)NC(=O)[C@H](CC(=O)O)NC(=O)[C@H](CO)NC(=O)[C@@H](NC(=O)[C@](C)(Cc1ccccc1F)NC(=O)[C@@H](NC(=O)CNC(=O)[C@H](CCC(=O)O)NC(=O)C(C)(C)NC(=O)[C@@H](N)Cc1ccc(O)cc1)[C@@H](C)O)[C@@H](C)O)[C@@H](C)CC)C(=O)N[C@@H](C)C(=O)N[C@@H](CCC(N)=O)C(=O)NC(C)(C)C(=O)N[C@@H](CCCCNC(=O)COCCOCCNC(=O)COCCOCCNC(=O)CC[C@H](NC(=O)CCCCCCCCCCCCC(=O)O)C(=O)O)C(=O)N[C@@](C)(Cc1ccccc1)C(=O)N[C@H](C(=O)N[C@H](CCC(=O)O)C(=O)N[C@@](C)(Cc1ccc(O)cc1)C(=O)N[C@@H](CC(C)C)C(=O)N[C@H](C(=O)N[C@@H](CCC(=O)O)C(=O)NCC(=O)NCC(=O)N1CCC[C@H]1C(=O)N[C@@H](CO)C(=O)N[C@@H](CO)C(=O)NCC(=O)N[C@@H](C)C(=O)N1CCC[C@H]1C(=O)N1CCC[C@H]1C(=O)N1CCC[C@H]1C(=O)N[C@@H](CO)C(N)=O)[C@@H](C)CC)[C@@H](C)CC [Example 109] | > 9950 | 84.8 |  |  |  | 0.0236
CC[C@H](C)[C@H](NC(=O)[C@H](CCCN)NC(=O)[C@H](CC(=O)O)NC(=O)[C@H](CC(C)C)NC(=O)[C@](C)(CC(C)C)NC(=O)[C@@H](NC(=O)[C@H](CO)NC(=O)[C@H](CCCCNC(=O)COCCOCCNC(=O)COCCOCCNC(=O)CC[C@H](NC(=O)CCCCCCCCCCCCC(=O)O)C(=O)O)NC(=O)[C@H](CC(=O)O)NC(=O)[C@H](CO)NC(=O)[C@@H](NC(=O)[C@](C)(Cc1ccccc1F)NC(=O)[C@@H](NC(=O)CNC(=O)[C@H](CCC(=O)O)NC(=O)C(C)(C)NC(=O)[C@@H](N)Cc1ccc(O)cc1)[C@@H](C)O)[C@@H](C)O)[C@@H](C)CC)C(=O)N[C@@H](C)C(=O)N[C@@H](CCC(N)=O)C(=O)NC(C)(C)C(=O)N[C@@H](CCC(=O)O)C(=O)N[C@@](C)(Cc1ccccc1)C(=O)N[C@H](C(=O)N[C@H](CCC(=O)O)C(=O)N[C@@](C)(Cc1ccc(O)cc1)C(=O)N[C@@H](CC(C)C)C(=O)N[C@H](C(=O)N[C@@H](CCC(=O)O)C(=O)NCC(=O)NCC(=O)N[C@@H](CCCCNC(=O)COCCOCCNC(=O)COCCOCCNC(=O)CC[C@H](NC(=O)CCCCCCCCCCCCC(=O)O)C(=O)O)C(=O)N[C@@H](CO)C(=O)N[C@@H](CO)C(=O)NCC(=O)N[C@@H](C)C(=O)N1CCC[C@H]1C(=O)N1CCC[C@H]1C(=O)N1CCC[C@H]1C(=O)N[C@@H](CO)C(N)=O)[C@@H](C)CC)[C@@H](C)CC [Example 112] | > 9950 | 93.6 |  |  |  | 0.0229
CC[C@H](C)[C@H](NC(=O)[C@H](CC(C)C)NC(=O)[C@](C)(Cc1ccc(O)cc1)NC(=O)[C@@H](CCC(=O)O)NC(=O)[C@@H](NC(=O)[C@H](Cc1ccccc1)NC(=O)[C@H](CCC(=O)O)NC(=O)C(C)(C)NC(=O)[C@H](CCC(N)=O)NC(=O)[C@H](C)NC(=O)[C@H](CCCCNC(=O)COCCOCCNC(=O)COCCOCCNC(=O)CC[C@H](NC(=O)CCCCCCOc1ccc(C(=O)O)cc1)C(=O)O)NC(=O)[C@H](CCCN)NC(=O)[C@H](CC(=O)O)NC(=O)[C@H](CC(C)C)NC(=O)[C@](C)(CC(C)C)NC(=O)[C@@H](NC(=O)[C@H](CO)NC(=O)[C@H](Cc1ccncc1)NC(=O)[C@H](CC(=O)O)NC(=O)[C@H](CO)NC(=O)[C@@H](NC(=O)[C@](C)(Cc1ccccc1F)NC(=O)[C@@H](NC(=O)CNC(=O)[C@H](CCC(=O)O)NC(=O)C(C)(C)NC(=O)[C@@H](N)Cc1ccc(O)cc1)[C@@H](C)O)[C@@H](C)O)[C@@H](C)CC)[C@@H](C)CC)C(=O)N[C@@H](CCC(=O)O)C(=O)NCC(=O)NCC(=O)N[C@@H](CCCCNC(=O)COCCOCCNC(=O)COCCOCCNC(=O)CC[C@H](NC(=O)CCCCCCOc1ccc(C(=O)O)cc1)C(=O)O)C(=O)N[C@@H](CO)C(=O)N[C@@H](CO)C(=O)NCC(=O)N[C@@H](C)C(=O)N1CCC[C@H]1C(=O)N1CCC[C@H]1C(=O)N1CCC[C@H]1C(=O)N[C@@H](CO)C(N)=O [Example 125] | > 9950 | 94.4 |  |  |  | 0.0547
